Where two headings read alike, the source gives them in different places. Bridge positions count the residues as written; N and C are the ends. Square brackets hold non-standard residues; d marks the D form. Ends that are not written are not given here. Peptide text beside a SMILES is read from it. * marks the point of attachment. 2Nal = N[C@@H](Cc1ccc2ccccc2c1)C(=O)O; Benzoyl(4-F) = O=C(c1ccc(F)cc1)*; Cit = NC(=O)NCCC[C@H](N)C(=O)O
What was measured:
CXCR4 [1] = target: T1, CXCR4 (Homo sapiens, UniProt P61073); experiment: 1D9 control antibody competition on SupT1 cells; assay type: binding; settings: PE-labelled 1D9, SupT1 cells, single experiment
T1 sequence (P61073 whole entry): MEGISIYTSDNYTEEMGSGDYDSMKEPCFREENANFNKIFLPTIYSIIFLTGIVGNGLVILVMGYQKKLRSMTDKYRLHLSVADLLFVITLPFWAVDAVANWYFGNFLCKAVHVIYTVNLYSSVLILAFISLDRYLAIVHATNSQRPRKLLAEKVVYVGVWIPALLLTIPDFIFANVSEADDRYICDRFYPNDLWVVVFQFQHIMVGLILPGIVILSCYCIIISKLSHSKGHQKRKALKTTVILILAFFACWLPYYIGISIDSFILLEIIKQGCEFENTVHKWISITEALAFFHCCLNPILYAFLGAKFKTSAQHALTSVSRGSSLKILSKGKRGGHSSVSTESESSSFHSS

CXCR4-tropic HIV-1 [2] = settings: read-out: IC50 HIV-1; TZM-bl cells, infection rate after 3 days; mean ± SEM of 3 assays
CXCR4 [3] = target: T1, CXCR4; experiment: 12G5 antibody competition assay on SupT1 cells; assay type: binding
Procedure: Compounds were serially diluted in ice cold PBS and 12G5-APC antibody was diluted in cold PBS containing 1% FCS. […] Plates were incubated at 4 °C in the dark for 2 h. Afterwards cells were washed twice by centrifugation with PBS containing 1% FCS and fixed with 2% paraformaldehyde (PFA). During all pipetting steps, plates were kept cool by using a cooling pad. Antibody binding was analyzed by flow cytometry (FACS CytoFLEX; Beckman Coulter) by determination of the mean fluorescence intensity (MFI) of at least 5.000 cells (50.000 cells per well) or 1.000 cells (5.000 cells per well).
Ki calculation3 Ki=IC50/1+L/Kd
For Ki = inhibitory constant; IC50 = half maximal inhibition for 12G5 binding; [L] = 12G5 concentration; Kd = dissociation constant of 12G5.
(§1) Statistical analysis was performed in GraphPad Prism (version 8.3.0). IC50 and IC90 curves and the areas under the curves (AUC) were determined by nonlinear regression.

[4] = Functional stability in human plasma read out by 12G5 competition; assay type: in vitro ADME; settings: for half-life at 20 µM: human, plasma
Procedure: The t = 0 sample was immediately taken and stored at − 80 °C. Plasma/compound or blood/compound mixture was then transferred to 37 °C and shook at 350 rpm. At given time points samples were taken and stored at − 80 °C. For measuring the functional activity of the plasma/peptide samples, the mixtures were thawed and serially diluted in ice cold PBS (starting with 100% sample). 12G5-APC antibody competition was then performed as described before. Note, that during the competition process the samples are 1:1 diluted with the antibody and the highest plasma concentration on cells was 50%. For blood/peptide functional stability, samples were thawed and centrifuged at 14,000 rpm for 3 min at 4 °C to remove cells and debris. The supernatant was then serially diluted in PBS (starting with 100% sample) and 12G5-antibody competition assay was performed. […] Afterwards cells were washed again and analyzed for bound antibody.
as §1

in vitro = in vitro ADME, human
Procedure: Compounds were 150-fold diluted in human plasma or whole human blood to reach final concentrations of 20 µM. The t = 0 sample was immediately taken and stored at − 80 °C. Plasma/compound or blood/compound mixture was then transferred to 37 °C and shook at 350 rpm. At given time points samples were taken and stored at − 80 °C. For measuring the functional activity of the plasma/peptide samples, the mixtures were thawed and serially diluted in ice cold PBS (starting with 100% sample). 12G5-APC antibody competition was then performed as described before. Note, that during the competition process the samples are 1:1 diluted with the antibody and the highest plasma concentration on cells was 50%. For blood/peptide functional stability, samples were thawed and centrifuged at 14,000 rpm for 3 min at 4 °C to remove cells and debris. The supernatant was then serially diluted in PBS (starting with 100% sample) and 12G5-antibody competition assay was performed. After the 2 h incubation, the cells were washed by centrifugation (1.300 rpm, 4 °C) and 50 µL of 1-step-Fix/Lyse solution (Thermo Fisher #00-5333-54) was added for 15 min at room temperature. Afterwards cells were washed again and analyzed for bound antibody.
Statistical analysis was performed in GraphPad Prism (version 8.3.0). IC50 and IC90 curves and the areas under the curves (AUC) were determined by nonlinear regression. For half-life calculations, the IC50 values for each time point as well as the AUCs were analyzed and normalized relative to t = 0. Activities were then determined ((IC50 (t = 0) / IC50 (t)) × 100) for each time point and half-lives determined by a One-Phase-Decay model.

[5] = 20 µM, up to 60 min, 37 °C, mouse plasma from a single animal
CXCR4 [6] = target: T1, CXCR4; experiment: 12G5 antibody competition assay on SupT1 cells; assay type: binding; settings: 1, 2 and 4 h incubation, Fig. S2
CXCL12 migration = settings: cited from earlier work
CXCR4-tropic HIV-1 [7] = test system: CXCR4-tropic HIV-1; parameters: method as in PMID 25921529, PMID 30768790; settings: cited from earlier work
[8] = read-out: IC50 Migration, 100 ng/mL CXCL12, 4 h, mean ± SEM of 3 assays

Compound | effect on 1D9 antibody binding (CXCR4 [1]) | IC50 (CXCR4-tropic HIV-1 [2]) [nM] | IC50 (SupT1 cells; [8]) [µM] | IC50 (CXCR4 [3]; SupT1 cells, APC-labelled 12G5, 2 h at 4 °C, mean ± SEM of 3 assays) [nM] | Ki (CXCR4 [3]; calculated from IC50 12G5 by Cheng-Prusoff, Kd of 12G5 151.5 pM) [nM] | 12G5-competing activity after 24 h in plasma ([4]; 20 µM in 99.3% pooled human plasma, 37 °C, 24 h) | half-life t1/2 in plasma ([4]; 20 µM in pooled human plasma (6 donors), 37 °C, from IC50 relative to t = 0, one-phase decay) [min] | half-life t1/2 in plasma ([4]; 20 µM in pooled human plasma (6 donors), 37 °C, from IC50 relative to t = 0, one-phase decay, listed as WCS02) | inactivation in plasma with L-leucinethiol ([4]; human plasma pretreated with 300 µM L-leucinethiol (leucyl aminopeptidase inhibitor)) | half-life at 20 µM ([4]; 20 µM in plasma of an individual donor, 37 °C, read-out: half-life t1/2 in plasma) [min] | half-life at 20 µM ([4]; 20 µM in pooled human plasma (6 donors), 37 °C, from IC50 relative to t = 0, one-phase decay, read-out: half-life t1/2 in plasma) [min] | half-life at 20 µM ([4]; 20 µM in pooled human plasma, 37 °C, from areas under inhibition curves, read-out: half-life t1/2 in plasma from AUC) [min] | half-life t1/2 in blood (in vitro; 20 µM in whole EDTA blood of an individual donor, 37 °C) [min] | half-life at 20 µM (in vitro; human, 20 µM in whole EDTA blood of an individual donor, 37 °C, read-out: half-life t1/2 in blood) [min] | stability in blood compared to plasma (in vitro; human, plasma) | IC50 (SupT1 cells; read-out: IC50 migration, SupT1 towards CXCL12) [µM] | inactivation in mouse plasma versus human plasma [5] | IC50, IC90 and AUC after different incubation times (CXCR4 [6]) | IC50 leukemia cell migration towards CXCL12 (CXCL12 migration) | IC50 CXCR4-tropic HIV-1 infection (CXCR4-tropic HIV-1 [7])
N=C(N)NCCC[C@H](NC(=O)[C@@H]1CSSC[C@H](NC(=O)[C@H](Cc2ccc3ccccc3c2)NC(=O)[C@H](CCCNC(=N)N)NC(=O)[C@H](CCCNC(=N)N)NC(=O)c2ccc(F)cc2)C(=O)N[C@@H](Cc2ccc(O)cc2)C(=O)N[C@@H](CCCNC(N)=O)C(=O)N[C@@H](CCCCN)C(=O)N[C@H](CCCCN)C(=O)N2CCC[C@H]2C(=O)N[C@@H](Cc2ccc(O)cc2)C(=O)N[C@@H](CCCNC(=N)N)C(=O)N[C@@H](CCCNC(N)=O)C(=O)N1)C(N)=O [BKT-140] ({Benzoyl(4-F)}-RR[2Nal]CY[Cit]K[dK]PYR[Cit]CR-NH2; disulfide 4-13; N-terminus and C-terminus assumed) | seemed to reduce 1D9 binding | 435 ± 153 | 0.932 ± 0.131 | – | – | – | – | – | – | – | – | – | – | – | – | – | – | – | – | –
IVRWSKKVPCVS [EPI-X4 WSC02] | – | 257 ± 109 | 15.8 | 290 ± 75 | 111 ± 29 | remained partially active | 10 | ~ 10 min | largely prevented WSC02 inactivation | 9.7 | 9.7 | 9.7 | 9 | 8.9 | less stable in blood compared to plasma | 16 | more rapid inactivation of the peptide in mouse plasma | No significant differences | nanomolar range | nanomolar range

Reference: publication PMC7525492, “Microtiter plate-based antibody-competition assay to determine binding affinities and plasma/blood stability of CXCR4 ligands” (Scientific Reports, 2020)
